# In US8440613B2, “Controlling diseases caused by trichomonadida” (Bayer Intellectual Property GmbH, priority 2008, dated 2013):
# Tests used:
# Heterakis spumosa [1] = assay: Anthelmintic activity against Heterakis spumosa in mice; format: in vivo; conditions: Heterakis spumosa (mouse); treated on four consecutive days 35 days post-infection; worms counted day 7 after treatment
# Description: Male mice (strain Bor CFW, body weight between 25 and 30 g) are kept in Makrolon cages (3 animals/cage) and fed ad lib with water and SNIFF rat food (10 mm pellets). Mice are infected with Heterakis spumosa by oral administration of 90 embryonated eggs. The eggs had been obtained from female worms which had been isolated from the mices colon 40 days post-infection. The eggs were incubated for a further 3 weeks at 37° C. 35 days post-infection, the mice were treated with the respective dose of PF1022A or emodepside on four consecutive days. PF1022A is suspended in Cremophor EL. On day 7 after the treatment, the mice are sacrificed, the ileum/caecum/colon region is removed, and the worms are counted with the naked eye. The ratio of the number of expelled worms in percent of the total number of worms in untreated, infected control animals is defined as the measure for the anthelmintic activity.
# Heterakis spumosa [2] = conditions: murine nematode Heterakis spumosa; oral dose; refs (13, 15); cited from earlier work
# Ascaridia galli = conditions: cited from earlier work
# histomonad field strain = assay: Cage experiments; histomonad activity in turkeys; format: in vivo; conditions: day -4 to +14; for Average lesions in the appendix / Infection-related lesions in the liver: score 0=no lesions, 4=severe lesions
# Description: Histomonad-free male turkeys aged 10 days received nifurtimox or the comparative compound nitarson in the concentration given in “ppm” together with the feed from day −4 (=4 days prior to infection) to day 14. Infection is carried out on day 0, 10 animals are kept per group cage. 1 to 3 such groups are employed per dose.
# The infection is carried out with a histomonad field strain which is passaged in the laboratory and stored in liquid nitrogen. On day 0, in each case 5 animals of a cage (with the exception of the noninfected control) are infected intracloacally with 250 000 histomonads in each case 1 ml of Dwyer's medium (=direct infection). After a few days, these infected animals excrete fresh histomonads and thus transmit the pathogen to the remaining 5 animals of the cage (=indirect infection).
# To assess the activity, the criteria of McDougald and Hu 2001 (7) are taken into consideration: • the infection-caused mortality • the weight gain from the beginning to the end of the experiment • feed consumption • feed conversion • macroscopic assessment of the infection-related lesions in the appendices (caecum) and in the liver. In this assessment, score 0=no lesions and score 4=severe lesions.
# [3] = direct infection no, nifurtimox 30 ppm in feed, study of Table 1
# [4] = direct infection no, nifurtimox 60 ppm in feed, study of Table 1
# [5] = direct infection no, nifurtimox 100 ppm in feed, study of Table 2
# [6] = direct infection no, nifurtimox 120 ppm in feed, study of Table 1
# [7] = direct infection no, nifurtimox 200 ppm in feed, study of Table 1
# [8] = direct infection no, nifurtimox 200 ppm in feed, study of Table 2
# [9] = direct infection no, nifurtimox 300 ppm in feed, study of Table 2
# [10] = direct infection no, nifurtimox 400 ppm in feed, study of Table 2
# [11] = direct infection yes, nifurtimox 30 ppm in feed, study of Table 1
# [12] = direct infection yes, nifurtimox 60 ppm in feed, study of Table 1
# [13] = direct infection yes, nifurtimox 100 ppm in feed, study of Table 2
# [14] = direct infection yes, nifurtimox 120 ppm in feed, study of Table 1
# [15] = direct infection yes, nifurtimox 200 ppm in feed, study of Table 1
# [16] = direct infection yes, nifurtimox 200 ppm in feed, study of Table 2
# [17] = direct infection yes, nifurtimox 300 ppm in feed, study of Table 2
# [18] = direct infection yes, nifurtimox 400 ppm in feed, study of Table 2
# [19] = nifurtimox 30 ppm in feed, study of Table 1
# [20] = nifurtimox 60 ppm in feed, study of Table 1
# [21] = nifurtimox 100 ppm in feed, study of Table 2
# [22] = nifurtimox 120 ppm in feed, study of Table 1
# [23] = nifurtimox 200 ppm in feed, study of Table 1
# [24] = nifurtimox 200 ppm in feed, study of Table 2
# [25] = nifurtimox 300 ppm in feed, study of Table 2
# [26] = nifurtimox 400 ppm in feed, study of Table 2
structure (smiles),measurement,setting,value
"CC(C)CC1C(=O)OC(Cc2ccc(N3CCOCC3)cc2)C(=O)N(C)C(CC(C)C)C(=O)OC(C)C(=O)N(C)C(CC(C)C)C(=O)OC(Cc2ccc(N3CCOCC3)cc2)C(=O)N(C)C(CC(C)C)C(=O)OC(C)C(=O)N1C [Emodepside, cyclo[(R)-lactoyl-N-methyl-L-leucyl-(R)-3-(p-morpholinophenyl)lactoyl-N-methyl-L-leucyl-(R)-lactoyl-N-methyl-L-leucyl-(R)-3-(p-morpholinophenyl)lactoyl-N-methyl-L-leucyl]]",Dose with full activity,Heterakis spumosa [1],1 to 10 mg/kg
same,Dose at which active against Heterakis spumosa,Heterakis spumosa [2],1 to 10 mg/kg
CC(C)CC1C(=O)OC(Cc2ccccc2)C(=O)N(C)C(CC(C)C)C(=O)OC(C)C(=O)N(C)C(CC(C)C)C(=O)OC(Cc2ccccc2)C(=O)N(C)C(CC(C)C)C(=O)OC(C)C(=O)N1C (stereo not drawn) [PF1022A],Dose with full activity,Heterakis spumosa [1],50 mg/kg
same,Dose at which active against Heterakis spumosa,Heterakis spumosa [2],50 mg/kg
same,Dose with full activity,Ascaridia galli; Ascaridia galli (chicken),2 mg/kg
same,Dose at which the compound acts against Ascaridia galli,"Ascaridia galli; Ascaridia galli in chickens, ref (16)",2 mg/kg
CC1CS(=O)(=O)CCN1N=Cc1ccc([N+](=O)[O-])o1 (stereo not drawn) [nifurtimox],Mean weight gain (g) between day 0 and the time of death,histomonad field strain; [3],730 g
same,Mean weight gain (g) between day 0 and the time of death,histomonad field strain; [4],838 g
same,Mean weight gain (g) between day 0 and the time of death,histomonad field strain; [5],581 g
same,Mean weight gain (g) between day 0 and the time of death,histomonad field strain; [6],744 g
same,Mean weight gain (g) between day 0 and the time of death,histomonad field strain; [7],744 g
same,Mean weight gain (g) between day 0 and the time of death,histomonad field strain; [8],525 g
same,Mean weight gain (g) between day 0 and the time of death,histomonad field strain; [9],750 g
same,Mean weight gain (g) between day 0 and the time of death,histomonad field strain; [10],832 g
same,Mean weight gain (g) between day 0 and the time of death,histomonad field strain; [11],235 g
same,Mean weight gain (g) between day 0 and the time of death,histomonad field strain; [12],304 g
same,Mean weight gain (g) between day 0 and the time of death,histomonad field strain; [13],135 g
same,Mean weight gain (g) between day 0 and the time of death,histomonad field strain; [14],182 g
same,Mean weight gain (g) between day 0 and the time of death,histomonad field strain; [15],264 g
same,Mean weight gain (g) between day 0 and the time of death,histomonad field strain; [16],270 g
same,Mean weight gain (g) between day 0 and the time of death,histomonad field strain; [17],450 g
same,Mean weight gain (g) between day 0 and the time of death,histomonad field strain; [18],691 g
same,Mean feed consumption between day 0 and day 14,histomonad field strain; [19],9.00 kg
same,Mean feed conversion between day 0 and day 14,histomonad field strain; [19],1.88
same,Mortality caused by histomoniasis,histomonad field strain; [19],5
same,Mean feed consumption between day 0 and day 14,histomonad field strain; [20],9.68 kg
same,Mean feed conversion between day 0 and day 14,histomonad field strain; [20],1.70
same,Mortality caused by histomoniasis,histomonad field strain; [20],6
same,Mean feed consumption between day 0 and day 14,histomonad field strain; [21],6.69 kg
same,Mean feed conversion between day 0 and day 14,histomonad field strain; [21],2.32
same,Mortality caused by histomoniasis,histomonad field strain; [21],13
same,Mean feed consumption between day 0 and day 14,histomonad field strain; [22],8.70 kg
same,Mean feed conversion between day 0 and day 14,histomonad field strain; [22],1.88
same,Mortality caused by histomoniasis,histomonad field strain; [22],5
same,Mean feed consumption between day 0 and day 14,histomonad field strain; [23],9.59 kg
same,Mean feed conversion between day 0 and day 14,histomonad field strain; [23],1.91
same,Mortality caused by histomoniasis,histomonad field strain; [23],4
same,Mean feed consumption between day 0 and day 14,histomonad field strain; [24],9.14 kg
same,Mean feed conversion between day 0 and day 14,histomonad field strain; [24],2.33
same,Mortality caused by histomoniasis,histomonad field strain; [24],4
same,Mean feed consumption between day 0 and day 14,histomonad field strain; [25],10.40 kg
same,Mean feed conversion between day 0 and day 14,histomonad field strain; [25],1.83
same,Mortality caused by histomoniasis,histomonad field strain; [25],2
same,Mean feed consumption between day 0 and day 14,histomonad field strain; [26],11.79 kg
same,Mean feed conversion between day 0 and day 14,histomonad field strain; [26],1.55
same,Mortality caused by histomoniasis,histomonad field strain; [26],0
same,Average lesions in the appendix,histomonad field strain; [3],0.29
same,Infection-related lesions in the liver,histomonad field strain; [3],0.29
same,Average lesions in the appendix,histomonad field strain; [4],0.00
same,Infection-related lesions in the liver,histomonad field strain; [4],0.00
same,Average lesions in the appendix,histomonad field strain; [5],1.08
same,Infection-related lesions in the liver,histomonad field strain; [5],0.58
same,Average lesions in the appendix,histomonad field strain; [6],0.53
same,Infection-related lesions in the liver,histomonad field strain; [6],0.27
same,Average lesions in the appendix,histomonad field strain; [7],0.47
same,Infection-related lesions in the liver,histomonad field strain; [7],0.13
same,Average lesions in the appendix,histomonad field strain; [8],1.80
same,Infection-related lesions in the liver,histomonad field strain; [8],0.73
same,Average lesions in the appendix,histomonad field strain; [9],0.79
same,Infection-related lesions in the liver,histomonad field strain; [9],0.07
same,Average lesions in the appendix,histomonad field strain; [10],0.27
same,Infection-related lesions in the liver,histomonad field strain; [10],0.00
same,Average lesions in the appendix,histomonad field strain; [11],3.73
same,Infection-related lesions in the liver,histomonad field strain; [11],2.53
same,Average lesions in the appendix,histomonad field strain; [12],3.53
same,Infection-related lesions in the liver,histomonad field strain; [12],2.53
same,Average lesions in the appendix,histomonad field strain; [13],3.79
same,Infection-related lesions in the liver,histomonad field strain; [13],2.00
same,Average lesions in the appendix,histomonad field strain; [14],4.00
same,Infection-related lesions in the liver,histomonad field strain; [14],1.80
same,Average lesions in the appendix,histomonad field strain; [15],3.80
same,Infection-related lesions in the liver,histomonad field strain; [15],1.33
same,Average lesions in the appendix,histomonad field strain; [16],3.67
same,Infection-related lesions in the liver,histomonad field strain; [16],1.33
same,Average lesions in the appendix,histomonad field strain; [17],2.53
same,Infection-related lesions in the liver,histomonad field strain; [17],0.40
same,Average lesions in the appendix,histomonad field strain; [18],1.20
same,Infection-related lesions in the liver,histomonad field strain; [18],0.00
